Test results reported in US20260193228A1, “TRIAZINONE DERIVATIVES AS NLRP3 INHIBITORS” (Hoffmann-La Roche Inc., priority 2022, published 2026).

Tests used:
Assay type in all cases: cell-based
NLRP3 [1] = target: T1, NLRP3 (Homo sapiens, UniProt Q96P20); assay: THP-1 cells pyroptosis assay; design: Seed THP-1 cells (25,000 cells/well) containing 1.0 μg/ml LPS; host or cells: THP-1 cells; settings: 1.0 μg/ml LPS, nigericin 5 μM, resazurin readout
Experimental: THP-1 cells (ATCC #TIB-202) were grown in RPMI containing L-glutamine (Gibco #11835) supplemented with 1 mM sodium pyruvate (Sigma #S8636) and penicillin (100 units/ml)/streptomycin (0.1 mg/ml) (Sigma #P4333) in 10% Fetal Bovine Serum (FBS) (Sigma #F0804). The cells were routinely passaged and grown to confluency (~10^6 cells/ml). On the day of the experiment, THP-1 cells were harvested and resuspended into RPMI medium (without FBS). The cells were then counted and viability (>90%) checked by Trypan blue (Sigma #T8154). Appropriate dilutions were made to give a concentration of 625,000 cells/ml. To this diluted cell solution was added LPS (Sigma #L4524) to give a […] Final Assay Concentration (FAC). 40 μl of the final preparation was aliquoted into each well of a 96-well plate. The plate thus prepared was used for compound screening.
The following method step-by-step assay was followed for compound screening. • 1. Seed THP-1 cells (25,000 cells/well) containing 1.0 μg/ml LPS in 40 μl of RPMI medium (without FBS) in 96-well, black walled, clear bottom cell culture plates coated with poly-D-lysine (VWR #734-0317) • 2. Add 5 μl compound (8 points half-log dilution, with 10 μM top dose) or vehicle (DMSO 0.1% FAC) to the appropriate wells • 3. Incubate for 3 hours at 37° C., 5% CO2 • 4. Add 5 μl nigericin (Sigma #N7143) (FAC 5 μM) to all wells • 5. Incubate for 1 hr at 37° C., 5% CO2 • 6. At the end of the incubation period, spin plates at 300×g for 3 mins and remove supernatant • 7. Then add 50 μl of resazurin (Sigma #R7017) (FAC 100 μM resazurin in RPMI medium without FBS) and incubate plates for a further 1-2 hours at 37° C. and 5% CO2 • 8. Plates were read in an Envision reader at Ex 560 nm and Em 590 nm • 9. IC50 data is fitted to a non-linear regression equation (log inhibitor vs response-variable slope 4-parameters)

[2] = target: T2, hERG cardiac potassium channel (Homo sapiens, UniProt Q12809); assay: hERG screening assay (automated patch clamp, CHO crelox hERG cells); settings: CHO crelox hERG cells (CHO cells that express hERG), whole-cell patch clamp, 35-37° C.
T2 construct: host or cells: CHO crelox hERG cell line (Chinese hamster)
Description: In the drug development process of small molecules, one of the most frequent adverse side effects, leading to the failure of drugs, is the cardiac arrhythmias. Such failure is often related to the capacity of the drug to inhibit the human ether-a-go-go-related gene (hERG) cardiac potassium channel. Having no or low inhibition of the hERG cardiac potassium channel is therefore considered as beneficial.
The CHO crelox hERG cell line (ATCC reference Nr. PTA-6812, female Chinese hamster cells) was generated and validated at Roche. Ready-to-use frozen instant CHO-hERG cells were cryopreserved at Evotec (Germany) and used directly in the experiments.
The extracellular solution contains (in mM): NaCl 150; KCl 4; CaCl2 1; MgCl2 1; HEPES 10; pH 7.2-7.4 with NaOH, osmolarity 290-330 mOsm. […]
The effects of a compound on hERG K+-currents parameters will be evaluated at 2 concentrations in at least 4 cells.
The hERG test is performed using automated patch clamp system SynchroPatch® 384 (Nanion Technologies GmbH, Germany). K+ currents are measured with the patch-voltage-clamp technique in the whole-cell configuration at 35-37° C. […]
The amplitudes of IKhERG were recorded in each concentration of drug and they were compared to the vehicle control values (taken as 100%) to define fractional blocks. […]

NLRP3 [3] = target: T1, NLRP3; assay: Human whole blood IL-1β release assay; settings: 1 μg/ml LPS, nigericin 10 μM, IL-1β AlphaLisa
Experimental: For systemic delivery, the ability to inhibit NLRP3 when the compounds are present within the bloodstream is of great importance. For this reason, the NLRP3 inhibitory activity of a number of compounds in human whole blood was investigated in accordance with the following protocol.
Human whole blood in Li-heparin tubes was obtained from healthy donors from a volunteer donor panel. • 1. Plate out 80 μl of whole blood containing 1 μg/ml of LPS in 96-well, clear bottom cell culture plate (Corning #3585) • 2. Add 10 μl compound (8 points half-log dilution with 10 μM top dose) or vehicle (DMSO 0.1% FAC) to the appropriate wells • 3. Incubate for 3 hours at 37° C., 5% CO2 • 4. Add 10 μl nigericin (Sigma #N7143) (10 μM FAC) to all wells • 5. Incubate for 1 hr at 37° C., 5% CO2 • 6. At the end of the incubation period, spin plates at 300×g for 5 mins to pellet cells and remove 20 μl of supernatant and add to 96-well v-bottom plates for IL-1β analysis (note: these plates containing the supernatants can be stored at −80° C. to be analysed at a later date) • 7. IL-1β was measured according to the manufacturer protocol (Perkin Elmer-AlphaLisa IL-1 Kit AL220F-5000) • 8. IC50 data is fitted to a non-linear regression equation (log inhibitor vs response-variable slope 4-parameters)

T1 sequence (Q96P20 whole entry): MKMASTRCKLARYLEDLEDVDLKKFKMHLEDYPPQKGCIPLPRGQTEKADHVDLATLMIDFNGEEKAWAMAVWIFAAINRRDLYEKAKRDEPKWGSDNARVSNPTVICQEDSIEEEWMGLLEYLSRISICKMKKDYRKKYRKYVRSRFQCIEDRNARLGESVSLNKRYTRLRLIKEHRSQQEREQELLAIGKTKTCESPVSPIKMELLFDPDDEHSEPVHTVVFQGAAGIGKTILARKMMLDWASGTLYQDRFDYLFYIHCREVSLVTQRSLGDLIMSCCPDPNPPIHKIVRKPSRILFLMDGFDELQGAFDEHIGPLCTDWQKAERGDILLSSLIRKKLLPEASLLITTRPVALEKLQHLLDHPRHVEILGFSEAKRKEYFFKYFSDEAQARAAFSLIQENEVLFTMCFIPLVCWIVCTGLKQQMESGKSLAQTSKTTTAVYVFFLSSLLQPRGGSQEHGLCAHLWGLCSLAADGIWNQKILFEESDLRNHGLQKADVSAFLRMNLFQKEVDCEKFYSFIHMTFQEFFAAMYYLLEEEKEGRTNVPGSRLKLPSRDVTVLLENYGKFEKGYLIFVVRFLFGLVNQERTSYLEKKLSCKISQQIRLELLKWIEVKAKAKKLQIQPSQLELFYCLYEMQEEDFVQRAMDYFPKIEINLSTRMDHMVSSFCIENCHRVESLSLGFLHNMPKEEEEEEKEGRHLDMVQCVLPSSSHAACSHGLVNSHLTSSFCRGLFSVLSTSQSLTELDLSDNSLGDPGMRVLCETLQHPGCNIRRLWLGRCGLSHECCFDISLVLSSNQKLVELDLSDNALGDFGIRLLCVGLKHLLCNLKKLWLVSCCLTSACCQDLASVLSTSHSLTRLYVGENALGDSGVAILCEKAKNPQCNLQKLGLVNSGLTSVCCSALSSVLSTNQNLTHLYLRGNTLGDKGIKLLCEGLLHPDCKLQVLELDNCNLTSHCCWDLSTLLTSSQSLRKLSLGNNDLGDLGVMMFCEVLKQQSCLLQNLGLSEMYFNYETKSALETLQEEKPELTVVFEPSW
T2 sequence (Q12809 whole entry): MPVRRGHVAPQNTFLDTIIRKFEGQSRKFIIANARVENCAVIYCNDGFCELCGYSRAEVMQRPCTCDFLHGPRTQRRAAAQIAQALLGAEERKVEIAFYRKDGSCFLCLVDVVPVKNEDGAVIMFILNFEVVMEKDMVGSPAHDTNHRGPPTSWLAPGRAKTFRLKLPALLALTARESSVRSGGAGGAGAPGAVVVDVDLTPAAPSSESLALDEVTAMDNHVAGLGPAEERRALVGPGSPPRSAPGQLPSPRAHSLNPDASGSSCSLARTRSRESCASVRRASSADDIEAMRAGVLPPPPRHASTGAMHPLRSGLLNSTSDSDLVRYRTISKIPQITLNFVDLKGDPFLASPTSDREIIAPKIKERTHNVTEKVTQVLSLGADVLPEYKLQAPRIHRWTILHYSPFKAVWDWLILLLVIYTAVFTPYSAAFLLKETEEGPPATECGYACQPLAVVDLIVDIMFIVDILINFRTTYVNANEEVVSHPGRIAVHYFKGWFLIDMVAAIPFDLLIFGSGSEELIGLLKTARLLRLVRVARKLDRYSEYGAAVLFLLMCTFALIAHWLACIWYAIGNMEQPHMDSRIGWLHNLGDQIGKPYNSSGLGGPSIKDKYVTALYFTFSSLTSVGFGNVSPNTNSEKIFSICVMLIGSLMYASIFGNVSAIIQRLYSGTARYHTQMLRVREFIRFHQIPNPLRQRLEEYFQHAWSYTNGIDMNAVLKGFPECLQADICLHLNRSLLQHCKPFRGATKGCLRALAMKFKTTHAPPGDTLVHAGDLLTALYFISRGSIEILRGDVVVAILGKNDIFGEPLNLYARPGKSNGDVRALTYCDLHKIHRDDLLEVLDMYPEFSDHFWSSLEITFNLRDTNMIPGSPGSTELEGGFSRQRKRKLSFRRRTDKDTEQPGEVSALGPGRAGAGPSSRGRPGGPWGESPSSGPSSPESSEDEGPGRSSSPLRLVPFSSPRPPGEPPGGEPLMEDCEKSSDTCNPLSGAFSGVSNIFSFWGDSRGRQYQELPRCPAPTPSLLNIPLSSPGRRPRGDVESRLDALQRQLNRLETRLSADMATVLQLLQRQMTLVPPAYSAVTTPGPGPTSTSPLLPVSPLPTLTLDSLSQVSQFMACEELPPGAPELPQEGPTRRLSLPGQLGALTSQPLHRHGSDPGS

Row | IC50 (NLRP3 [1]) [nM] | IC50 (NLRP3 [3]) [nM] | SMILES | IC20 [2] [nM]
1 | 616 | – | CCN1CCC[C@@H](Nc2nnc(-c3ccc(C(F)(F)F)cc3O)c(=O)n2C)C1 [Example 1, 3-[[(3R)-1-Ethyl-3-piperidyl]amino]-6-[2-hydroxy-4-(trifluoromethyl)phenyl]-4-methyl-1,2,4-triazin-5-one; Formic Acid] | –
2 | 31.3 | 52 | CCN1CCC[C@@H](Nc2nnc(-c3c(C)cc(C(F)(F)F)cc3O)c(=O)n2C)C1 [Example 2, 3-[[(3R)-1-ethyl-3-piperidyl]amino]-6-[2-hydroxy-6-methyl-4-(trifluoromethyl)phenyl]-4-methyl-1,2,4-triazin-5-one] | > 10000
3 | 17 | 41 | CCN1CCC[C@@H](Nc2nnc(-c3c(C)cc4c(c3O)CCC4)c(=O)n2C)C1 [Example 3, 3-[[(3R)-1-Ethyl-3-piperidyl]amino]-6-(4-hydroxy-6-methyl-indan-5-yl)-4-methyl-1,2,4-triazin-5-one] | > 10000
4 | 248 | – | Cc1cc2c(c(O)c1-c1nnc(N[C@@H]3CCCN(CCO)C3)n(C)c1=O)CCC2 [Example 4, 3-[[(3R)-1-(2-Hydroxyethyl)-3-piperidyl]amino]-6-(4-hydroxy-6-methyl-indan-5-yl)-4-methyl-1,2,4-triazin-5-one] | –
5 | 39 | 33 | CCN1CCC[C@@H](Nc2nnc(-c3c(C)cc4c(c3O)CCO4)c(=O)n2C)C1 [Example 5, 3-[[(3R)-1-Ethyl-3-piperidyl]amino]-6-(4-hydroxy-6-methyl-2,3-dihydrobenzofuran-5-yl)-4-methyl-1,2,4-triazin-5-one] | –
6 | 33 | 41 | CCN1CCC[C@@H](Nc2nnc(-c3c(C)cc(Cl)cc3O)c(=O)n2C)C1 [Example 6, 6-(4-Chloro-2-hydroxy-6-methyl-phenyl)-3-[[(3R)-1-ethyl-3-piperidyl]amino]-4-methyl-1,2,4-triazin-5-one] | –
